pIC50: −log10 of the molar value.
Tested on: HIV in the HTLV-1 transformed cell line MT-4
Assay: organism not typed
Type: cell-based
Conditions: MT-4 cells, luciferase/cell titer glo readout after 96 hours, 10 point dose response

SMILES	pIC50 (MT4, 96 h)	pIC50
Cc1ccc(-c2c(C)c3c(c(C)c2[C@H](OC(C)(C)C)C(=O)O)CN(C(=O)C2CCC2)C3)cc1 [Example 228, (S)-2-(tert-butoxy)-2-(2-(cyclobutanecarbonyl)-4,7-dimethyl-6-(p-tolyl)isoindolin-5-yl)acetic acid]	7.89	
Cc1c(-c2c(C)c3c(c(C)c2[C@H](OC(C)(C)C)C(=O)O)CN(C(=O)c2cc(F)c(Cl)c(F)c2)C3)cc(F)c2c1CCCO2 (atropisomer, axis not shown; (M)) [Example 175, (S)-2-(tert-butoxy)-2-((M)-2-(4-chloro-3,5-difluorobenzoyl)-6-(8-fluoro-5-methylchroman-6-yl)-4,7-dimethylisoindolin-5-yl)acetic acid]	8.30	
Cc1c(-c2c(C)c3c(c(C)c2[C@H](OC(C)(C)C)C(=O)O)CN(C(=O)c2ccc(Cl)cc2)C3)cc(F)c2c1CCCO2 (atropisomer, axis not shown; (M)) [Example 198, (S)-2-(tert-butoxy)-2-((M)-2-(4-chlorobenzoyl)-6-(8-fluoro-5-methylchroman-6-yl)-4,7-dimethylisoindolin-5-yl)acetic acid]	8.30	
Cc1ccc(-c2c(C)c3c(c(C)c2[C@H](OC(C)(C)C)C(=O)O)CN(C(=O)c2cccc(F)c2F)C3)cc1 [Example 120, (S)-2-(tert-butoxy)-2-(2-(2,3-difluorobenzoyl)-4,7-dimethyl-6-(p-tolyl)isoindolin-5-yl)acetic acid]	8.52	
Cc1ccc(-c2c(C)c3c(c(C)c2[C@H](OC(C)(C)C)C(=O)O)CN(C(=O)c2ccc(F)c(F)c2)C3)cc1 [Example 261, (S)-2-(tert-butoxy)-2-(2-(3,4-difluorobenzol)-4,7-dimethyl-6-(p-tolyl)isoindolin-5-yl)acetic acid]	8.40	
COc1cc(F)cc(C(=O)N2Cc3c(C)c(-c4ccc(C)cc4)c([C@H](OC(C)(C)C)C(=O)O)c(C)c3C2)c1 [Example 122, (S)-2-(tert-butoxy)-2-(2-(3-fluoro-5-methoxybenzoyl)-4,7-dimethyl-6-(p-tolyl)isoindolin-5-yl)acetic acid]	8.52	
Cc1ccc(-c2c(C)c3c(c(C)c2[C@H](OC(C)(C)C)C(=O)O)CN(CC2CCCN2C(=O)OC(C)(C)C)C3)cc1 (stereo partly drawn) [Example 40, (2S)-2-(tert-butoxy)-2-[2-({1-[(tert-butoxy)carbonyl]pyrrolidin-2-yl}methyl)-4,7-dimethyl-6-(4-methylphenyl)-2,3-dihydro-1H-isoindol-5-yl]acetic acid]	5.47	
Cc1c(-c2c(C)c3c(c(C)c2[C@H](OC(C)(C)C)C(=O)O)CN(C(=O)C(=O)N2CCCCC2)C3)cc(F)c2c1CCCO2 (atropisomer, axis not shown; (M)) [Example 215]	8.00	
Cc1ccc(-c2c(C)c3c(c(C)c2[C@H](OC(C)(C)C)C(=O)O)CN(Cc2ccccc2F)C3)cc1 [Example 21, (S)-2-(tert-butoxy)-2-(2-(2-fluorobenzyl)-4,7-dimethyl-6-(p-tolyl)isoindolin-5-yl)acetic acid]	7.40	
Cc1cccc(C(=O)N2Cc3c(C)c(-c4cc(F)c5c(c4C)CCCO5)c([C@H](OC(C)(C)C)C(=O)O)c(C)c3C2)c1 (atropisomer, axis not shown; (M)) [Example 149, (S)-2-(tert-butoxy)-2-((M)-6-(8-fluoro-5-methylchroman-6-yl)-4,7-dimethyl-2-(3-methylbenzoyl)isoindolin-5-yl)acetic acid]	8.70	
Cc1ccc(-c2c(C)c3c(c(C)c2[C@H](OC(C)(C)C)C(=O)O)CN(C(=O)N(C)CC2CCCCC2)C3)cc1 [Example 78, (2S)-2-(tert-butoxy)-2-{2-[(cyclohexylmethyl)(methyl)carbamoyl]-4,7-dimethyl-6-(4-methylphenyl)-2,3-dihydro-1H-isoindol-5-yl}acetic acid]	6.90	
Cc1cc(Cl)ccc1-c1c(C)c2c(c(C)c1[C@H](OC(C)(C)C)C(=O)O)CN(C(=O)C1CCCCC1)C2 [Example 324, (2S)-2-(tert-butoxy)-2-(6-(4-chloro-2-methylphenyl)-2-(cyclohexanecarbonyl)-4,7-dimethylisoindolin-5-yl)acetic acid]	7.89	
Cc1ccc(-c2c(C)c3c(c(C)c2[C@H](OC(C)(C)C)C(=O)O)CN(C(=O)N2C[C@H](C)O[C@@H](C)C2)C3)cc1 [Example 73, (2S)-2-(tert-butoxy)-2-{2-[(2S,6S)-2,6-dimethylmorpholine-4-carbonyl]-4,7-dimethyl-6-(4-methylphenyl)-2,3-dihydro-1H-isoindol-5-yl}acetic acid]	7.59	
Cc1c(-c2c(C)c3c(c(C)c2[C@H](OC(C)(C)C)C(=O)O)CN(C(=O)Oc2ccccc2)C3)cc(F)c2c1CCCO2 (atropisomer, axis not shown; (M)) [Example 217, (S)-2-(tert-butoxy)-2-((M)-6-(8-fluoro-5-methylchroman-6-yl)-4,7-dimethyl-2-(phenoxycarbonyl)isoindolin-5-yl)acetic acid]	7.92	
Cc1ccc(C(=O)N2Cc3c(C)c(-c4cc(F)c5c(c4C)CCCO5)c([C@H](OC(C)(C)C)C(=O)O)c(C)c3C2)c(C)c1 (atropisomer, axis not shown; (M)) [Example 189, (S)-2-(tert-butoxy)-2-((M)-2-(2,4-dimethylbenzoyl)-6-(8-fluoro-5-methylchroman-6-yl)-4,7-dimethylisoindolin-5-yl)acetic acid]	8.40	
Cc1ccc(-c2c(C)c3c(c(C)c2[C@H](OC(C)(C)C)C(=O)O)CN(C(=O)c2cc(F)c(F)c(F)c2)C3)cc1 [Example 279, (S)-2-(tert-butoxy)-2-(4,7-dimethyl-6-(p-tolyl)-2-(3,4,5-trifluorobenzoyl)isoindolin-5-yl)acetic acid]	8.40	
Cc1ccc(-c2c(C)c3c(c(C)c2[C@H](OC(C)(C)C)C(=O)O)CN(C(=O)c2nccn2C)C3)cc1 [Example 239, (S)-2-(tert-butoxy)-2-(4,7-dimethyl-2-(1-methyl-1H-imidazole-2-carbonyl)-6-(p-tolyl)isoindolin-5-yl)acetic acid]		7.80
COCCN(C)C(=O)N1Cc2c(C)c(-c3ccc(C)cc3)c([C@H](OC(C)(C)C)C(=O)O)c(C)c2C1 [Example 62, (2S)-2-(tert-butoxy)-2-{2-[(2-methoxyethyl)(methyl)carbamoyl]-4,7-dimethyl-6-(4-methylphenyl)-2,3-dihydro-1H-isoindol-5-yl}acetic acid]	7.36	
COc1ccc(C)cc1C(=O)N1Cc2c(C)c(-c3ccc(C)cc3)c([C@H](OC(C)(C)C)C(=O)O)c(C)c2C1 [Example 250, (S)-2-(tert-butoxy)-2-(2-(2-methoxy-5-methylbenzoyl)-4,7-dimethyl-6-(p-tolyl)isoindolin-5-yl)acetic acid]	8.40	
Cc1ccc(-c2c(C)c3c(c(C)c2[C@H](OC(C)(C)C)C(=O)O)CN(C(=O)N2CCC[C@@H]2C)C3)cc1 [Example 87, (S)-2-(tert-butoxy)-2-(4,7-dimethyl-2-((S)-2-methylpyrrolidine-1-carbonyl)-6-(p-tolyl)isoindolin-5-yl)acetic acid]	8.30	
Cc1ccc(-c2c(C)c3c(c(C)c2[C@H](OC(C)(C)C)C(=O)O)CN(C2CCCC(c4ccccc4)C2)C3)cc1 (stereo partly drawn) [Example 31, (2S)-2-(tert-butoxy)-2-(4,7-dimethyl-2-(3-phenylcyclohexyl)-6-(p-tolyl)isoindolin-5-yl)acetic acid]	6.69	
Cc1ccc(-c2c(C)c3c(c(C)c2[C@H](OC(C)(C)C)C(=O)O)CN(C(=O)NCC(F)(F)F)C3)cc1 [Example 94, (S)-2-(tert-butoxy)-2-(4,7-dimethyl-6-(p-tolyl)-2-((2,2,2-trifluoroethyl)carbamoyl)isoindolin-5-yl)acetic acid]	7.36	
Cc1ccc(-c2c(C)c3c(c(C)c2[C@H](OC(C)(C)C)C(=O)O)CN(C(=S)c2cccc(F)c2)C3)cc1 [Example 288, (S)-2-(tert-butoxy)-2-(2-(3-fluorophenylcarbonothioyl)-4,7-dimethyl-6-(p-tolyl)isoindolin-5-yl)acetic acid]	7.82	
Cc1ccc(-c2c(C)c3c(c(C)c2[C@H](OC(C)(C)C)C(=O)O)CN(C(=O)c2cc(Cl)ccc2C)C3)cc1 [Example 263, (S)-2-(tert-butoxy)-2-(2-(5-chloro-2-methylbenzoyl)-4,7-dimethyl-6-(p-tolyl)isoindolin-5-yl)acetic acid]	8.22	
Cc1ccc(-c2c(C)c3c(c(C)c2[C@H](OC(C)(C)C)C(=O)O)CN(C(=O)c2ccc(Cl)cc2)C3)cc1 [Example 270, (S)-2-(tert-butoxy)-2-(2-(4-chlorobenzoyl)-4,7-dimethyl-6-(p-tolyl)isoindolin-5-yl)acetic acid]	8.40	
Cc1ccc(-c2c(C)c3c(c(C)c2[C@H](OC(C)(C)C)C(=O)O)CN(Cc2ccc(C(F)(F)F)cc2)C3)cc1 [Example 27, (S)-2-(tert-butoxy)-2-(4,7-dimethyl-6-(p-tolyl)-2-(4-(trifluoromethyl)benzyl)isoindolin-5-yl)acetic acid]	6.03	
Cc1ccc(-c2c(C)c3c(c(C)c2[C@H](OC(C)(C)C)C(=O)O)CN(C(=O)N2CCCCC2)C3)c(Cl)c1 [Example 322, (2S)-2-(tert-butoxy)-2-(6-(2-chloro-4-methylphenyl)-4,7-dimethyl-2-(piperidine-1-carbonyl)isoindolin-5-yl)acetic acid]		8.30
COc1cc(C(=O)N2Cc3c(C)c(-c4cc(F)c5c(c4C)CCCO5)c([C@H](OC(C)(C)C)C(=O)O)c(C)c3C2)ccc1F (atropisomer, axis not shown; (M)) [Example 180, (S)-2-(tert-butoxy)-2-((M)-2-(4-fluoro-3-methoxybenzoyl)-6-(8-fluoro-5-methylchroman-6-yl)-4,7-dimethylisoindolin-5-yl)acetic acid]	8.40	
Cc1c(-c2c(C)c3c(c(C)c2[C@H](OC(C)(C)C)C(=O)O)CN(C(=O)c2cccc4c2OCCO4)C3)cc(F)c2c1CCCO2 (atropisomer, axis not shown; (M)) [Example 153, (S)-2-(tert-butoxy)-2-((M)-2-(2,3-dihydrobenzo[b][1,4]dioxine-5-carbonyl)-6-(8-fluoro-5-methylchroman-6-yl)-4,7-dimethylisoindolin-5-yl)acetic acid]	8.40	
